Consider two molecules from patent publication US11497717B2, “Nanoparticles for use for treating a neuronal disorder” (NANOBIOTIX S.A., priority 2017, dated 2022).

Test [1] has as its system amyloid beta 1-42 (Abeta 1-42)-induced model of Alzheimer's disease in frontal cortex cultures of mouse neurons. As to the kind of experiment: Rescue of amyloid beta 1-42-induced functional effects on neuronal networks, phenotypic MEA screening (Example 8). In kind it is cell-based.
In test [2] the test system is MPP^+-treated mouse ventral midbrain/cortex co-cultures. The experiment in a line: Prevention/rescue efficacy on MPP+-induced neuronal networks, phenotypic MEA screening (Example 7). The format is cell-based. Here is the method:
The prevention/rescue efficacy of nanoparticles of the invention was tested on MPP^+-treated mouse ventral midbrain/cortex co-cultures, cultured on a 48-wells MEA for 3 weeks. This model represents an in vitro Parkinson's model for screening compounds, based on the functional rescue of dopaminergic neurons using challenged midbrain/cortex cultures growing on MEAs. Midbrain is a region of the brain including the substantia nigra which is part of the basal ganglia and which contains most of the dopaminergic neurons. The evaluation of the nanoparticles' prevention/rescue effect was performed via the measurement of the extracellular electrical activity of the co-culture of neurons plated on Microelectrode Array (MEA) chips. […]
Midbrain and frontal cortex tissue was harvested from embryonic day 14.5 chr:NMRI mice (Charles River). […] Tissue was dissociated by enzymatic digestion (133.3 Kunitz units/ml DNase; 10 Units/ml Papain) and mechanical trituration, counted, vitality controlled, and plated in a 20 μl drop of DMEM containing laminin (10 μg/ml), 10% fetal bovine serum and 10% horse serum on MEAs. Cultures on MEAs were incubated at 37° C. in a 10% CO2 atmosphere until ready for use. […]
At day 21, 120 minutes of neuronal activity were recorded, and 30 minutes of stable activity were analyzed (FIG. 6). […]
Each unit represents the activity originating from one neuron recorded at one electrode. […]

With `COc1cc2c(cc1OC)C(=O)C(CC1CCN(Cc3ccccc3)CC1)C2` (stereo not shown) [Donepezil, donepezil], in test [1] (Abeta 1-42 100 nM at T0, nanoparticles (800 μM; [BaTiO3]=2000 μM) or donepezil 300 nM at T0+4 h, Control=0, Abeta group=1, 15 of 204 parameters), the “Effect Score” value was 0.46. In test [1] (same treatment as Effect Score, Control set at 100%, Abeta group 0%), this molecule had a Rescue efficacy of 54%.

B1: GDNF: glial cell-derived neurotrophic factor, neuroprotector used as reference (protein, UniProt P39905 78-211, looked up)
Glial cell line-derived …: SPDKQMAVLPRRERNRQAAAANPENSRGKGRRGQRGKNRGCVLTAIHLNVTDLGLGYETKEELIFRYCSGSCDAAETTYDKILKNLSRNRRLVSDKVGQACCRPIAFDDDLSFLDDNLVYHILRKHSAKRCGCI
Turning to B1, the “Effect Score” value in test [2] (nanoparticles ([Au] or [Si]=800 μM; [BaTiO3]=2000 μM) or GDNF 20 ng/ml at day 7, MPP+ 20 μM at day 8, recording at day 21, Control=0, MPP+ group=1, 18 of 204 parameters) is on record as 0.44. Moreover, in test [2] (same treatment as Effect Score, Control set at 100%, MPP+ group 0%), the Prevention/rescue efficacy is 56%.
